# Data published in patent publication US20160199463A1, “HDAC2 DEFENDS VASCULAR ENDOTHELIUM FROM INJURY” (The Johns Hopkins University, priority 2014, published 2016).
# Entries after “also recorded” stand apart in the source; their conditions may differ. Peptide text beside a SMILES is read from it. * marks the point of attachment. Cbz = O=C(OCc1ccccc1)*
# Legend:
# [1] = tested on: HDAC2; settings: low-dose; cited from earlier work
# [2] = tested on: calcium-insensitive eNOS in HEK 293 cells; assay: NO radicals in medium of HEK 293 cells expressing calcium-insensitive eNOS (DCFH-DiOxyQ assay); format: cell-based, human; settings: TSA together with ABH
# Description: (§1) Nitric Oxide levels in HAEC were determined using DAF-DA as per manufacture instructions (Life Sciences). Briefly, cells were loaded with DAF-DA (5 μM) for 20 min and washed 3 times with PBS and incubated for another 30 min in phenol-free media. Fluorescence was determined using a Nikon TE-200 epifluorescence microscope. Images were captured with a Rolera EMC2 camera (Q-Imaging, BC, Canada) with Velocity software (PerkinElmer, Lexington, Mass.). NO production in the cell culture media was also determined by measuring Nitrite levels using a Siever's NO analyzer. NO radicals were measured in cell media collected after 24 hours of treatment using the Oxiselect assay (Cell Biolabs, San Diego, Calif.).
# Next, the functional consequences of HDAC inhibition on downstream endothelial cell signaling were evaluated. Because eNOS-derived NO plays a central role in endothelial function, eNOS activity was assessed by measuring NO production using 3 different assays. […] HEK 293 cells lack native eNOS expression, but do produce abundant Arg2. Cell medium from 293 cells transfected with a control plasmid (LacZ) was used as a control background signal that was subtracted from all the groups containing calcium-insensitive endothelial nitric oxide synthase.
# [3] = tested on: aortic rings of wild-type mice; assay: Force tension (wire) myography, vascular relaxation of isolated wild-type mouse aortic rings; format: cell-based; set-up: Emax: dose or concentration left out as unconfirmed
# Description: (§2) Mouse aorta was isolated and cleaned in ice-cold Krebs-Ringer-bicarbonate solution containing the following (in mM): 118.3 NaCl, 4.7 KCl, 1.6 CaCl2, 1.2 KH2 PO4, 25 NaHCO3, 1.2 MgSO4, and 11.1 dextrose. The aorta was immersed in a bath filled with constantly oxygenated Krebs buffer at 37° C. Equal size thoracic aortic rings (2 mm) were mounted using a microscope, ensuring no damage to the smooth muscle or endothelium. One end of the aortic rings was connected to a transducer, and the other to a micromanipulator. Aorta was passively stretched to an optimal resting tension using the micromanipulator, after which a dose of 60 mM KCl was administered, and repeated after a wash with Krebs buffer. After these washes, all vessels were allowed to equilibrate for 20-30 min in the presence of indomethacin (3 μM). Phenylephrine (1 μM) was administered to induce vasoconstriction. A dosedependent response (1 nM to 10 μM), with the muscarinic agonist, ACH or nitric oxide donor, SNP, was then performed as necessary. The responses were repeated in the presence of inhibitors. Relaxation responses were calculated as a percentage of tension following pre-constriction. Sigmoidal dose-response curves were fitted to data with the minimum constrained to 0. Two to four rings were isolated from each animal and the number of animals in each group (n) was 6.
# [4] = tested on: NO production in HAECs; assay: Nitric oxide production in HAECs (DAF-DA fluorescence, Siever's NO analyzer); format: cell-based, human; settings: TSA 1 μmol/L with ABH (1 μmol/L)
# Description: as §1
# [5] = tested on: Arg2; assay: Arg2 protein expression in HAECs (Western blot); format: cell-based, human
# Description: (§3) After 48 hrs of HAEC cells transfection, cells were lysed in ice cold RIPA lysis buffer consisting of 20 mM Tris-HCl at pH 7.5, 150 mM NaCl, 1 mM EDTA, 1 mM EGTA, 1% NP40, 1% sodium deoxycholate, 1 mM Na3VO4, 2.5 mM sodium pyrophosphate, 1 mM 3-glycerophosphate, 1 μg/mL leupeptin, and a 1:1000 diluted protease inhibitor cocktail (Sigma). For immunoprecipitation studies, whole cell lysate lysates were centrifuged at 14,000×g and supernatants were precleared by incubation with Protein A/G-agarose beads for 2 h at 4° C. with rocking. Agarose beads were then pelleted by centrifugation at 1,000×g. FLAG-Arg2 in precleared lysates were immunoprecipitated by incubation overnight at 4° C. with rocking following addition of anti-FLAG antibody (10 μl). Immune complexes were eluted in 2×SDS sample buffer by boiling for 5 minutes before loading into SDS-PAGE. Western blotting analysis was performed by transferring the SDS gel onto a PVDF membrane and visualized using secondary antibodies conjugated to alkaline phosphatases.
# [6] = tested on: HDAC4, 5, 6, 7, and 8; settings: cited from earlier work
# [7] = tested on: aortic rings from Arg2−/− mice; assay: Force tension (wire) myography, vascular relaxation of aortic rings from Arg2-/- mice; format: cell-based, mouse; settings: Mus musculus, 18 h; read-out: Emax endothelium-dependent relaxation
# Description: as §2
# [8] = tested on: arginase activity in HAECs; assay: Arginase activity assay (urea production) in HAEC lysates; format: cell-based, human; settings: preincubation 8 h, MLN4924 1 μM or MG132 10 μM, then OxLDL 50 μg/mL 24 h
# Description: HAEC were lysed using RIPA buffer (50 mM of Tris.HCl, pH 7.5, 0.1 mM EDTA, 0.1% Triton X-100, and protease inhibitor), and centrifuged for 30 min at 14,000 g at 4° C. 50 μL (50-100 μg) of supernatant was added to 75 μl of 10 mM MnCl2 made in Tris-HCl (50 mM, pH 7.5) and heat activated by incubating at 55-60° C. for 10 min. 50 μL of L-Arginine that was prepared in 300 mM Tris-HCL, pH 9.7 were then added to the activated cell lysates to achieve final concentrations of 150 mM and incubated at 37° C. for 3 hrs with shaking. The reaction was stopped by adding 400 μL of an acid solution (H2SO4: H3PO4: H20=1:3:7). For colorimetric determination of urea, α-isonitrosopropiophenone (25 μL, 9% in ethanol) was added and further heated at 100° C. for 45 min. Samples were allowed to cool at room temperature in the dark for 10 min and urea concentration was determined by measuring absorbance at 550 nm using a spectrophotometer.
# [9] = tested on: HDAC2; assay: HDAC2 protein expression in HAECs (immunoblot); format: cell-based, human
# Description: as §3
# [10] = tested on: eNOS; assay: eNOS expression in HAECs (immunoblot); format: cell-based, human; settings: 1 μmol/L, 18 hours
# Description: as §3
# [11] = tested on: HDAC; settings: cited from earlier work
smiles,measurement,setting,value
"Cn1c(=O)c2[nH]cnc2n(C)c1=O [theophylline, 1,3-dimethylxanthine]",HDAC2 activity and expression in alveolar macrophages,[1],increases
"NC(CCCCB(O)O)C(=O)O (stereo not drawn) [ABH, amino-2-borono-6-hexanoic acid]",TSA effect on NO production in the presence of ABH,[2],failed to attenuate
same,"Emax acetylcholine-mediated vasorelaxation, TSA-treated rings pretreated with ABH","[3]; TSA 200 nmol/L plus ABH (1 mmol/L), n=6",65.7±12.1%
same,TSA-induced decrease of NO production on coincubation with ABH,[4],failed to occur
C[C@@H]1C[C@@H]([C@H](O)CC2CC(=O)NC(=O)C2)C(=O)[C@@H](C)C1 [cycloheximide],TSA (1 μmol/L) effect on Arg2 expression in pretreated cells,[5]; pretreatment with actinomycin D or cycloheximide (10 μg/mL),failed to increase
same,OxLDL-induced peak in Arg2 protein levels,[5]; with cycloheximide,ablated
"Nc1ccccc1NC(=O)c1ccc(CNc2nccc(-c3cccnc3)n2)cc1 [MGCD0103, Mocetinostat]","endothelial Arg2 expression, class-specific HDAC inhibitors",[5],upregulate
same,"endothelium-independent responses to SNP, dose-dependent vasorelaxation","[3]; MGCD0103, MLN4924 or both, FIG. 29B",no significant differences
same,Ach response in WT aorta,[3]; MGCD0103 preincubation 48 hours,significant attenuation
same,Emax,"[3]; Mus musculus, 18 h, read-out: Emax endothelial-dependent vascular relaxation (acetylcholine)",42.7 ± 8.5%
same,SNP-mediated (endothelium-independent) vasorelaxation versus vehicle-only control,"[3]; TSA 200 nmol/L or MGCD0103 1 μmol/L, 18 hours",no significant difference; also recorded: unaffected
same,"activity to HDAC4, 5, 6, 7, and 8",[6],"selectivity against HDAC2, 3, and 11, and no"
same,Emax at 1 µM,[7],62.4 ± 16.5%
CC(C)C[C@@H](C=O)NC(=O)[C@H](CC(C)C)NC(=O)[C@H](CC(C)C)NC(=O)OCc1ccccc1 [MG132] (Cbz-Leu-Leu-Leu-aldehyde),OxLDL-induced increase in abundance of endothelial arginase,"[5]; preincubation 8 h, MLN4924 1 μM or MG132 10 μM, then OxLDL 50 μg/mL 24 h",abolished
same,OxLDL-induced increase in activity of endothelial arginase,[8],abolished
same,decrease of HDAC2 levels by HA-NEDD8 expression,"[9]; MG132 10 μM, 8 h",abolished
same,HDAC2 levels in OxLDL-exposed HAEC,"[9]; pretreatment 8 h, MLN4924 1 μM or MG132 10 μM, then OxLDL 50 μg/mL 24 h",rescued
O=C(CCCCCN1C(=O)c2cccc3cccc(c23)C1=O)NO [Scriptaid],"Arg2 expression, broad-spectrum HDAC inhibitors","[5]; 1 μmol/L, 18 hours",upregulated
same,eNOS expression,[10],negligible effect
"O=C(CCCCCCC(=O)Nc1ccccc1)NO [SAHA, Suberoylanilide Hydroxamic Acid]",eNOS expression,[10],negligible effect
same,HDAC classes blocked,[11],10 nM; block Class I and Class II HDACs
